Patent US4084006A, “Method of using dialkylphenols an antiviral agents” (priority 1977, dated 1978)

Assays:
[1] = tested on: Herpes simplex virus (HF strain); assay: Inhibition of cytopathic activity (CPE) of herpes virus in HEL tissue culture; assay type: cell-based; details: for CPE with 100 TCID50 doses of Herpes virus: HEL cells
Description: (§1) The anti-viral activity of 2,4-dimethylphenol was studied in the following manner. Tissue cultures derived from human embryonic lung (HEL) were grown and maintained as monolayers in 32 ounce prescription bottles using growth medium consisting of 85% synthetic mixture No. 199 plus 15% unfiltered fetal bovine serum (FBS) adjusted to pH 7.4. Tube cultures of HEL cells were prepared in similar fashion and used in assays for anti-viral activity. During chemotherapy tests, the maintenance medium consisted of synthetic mixture No. 199 with 7.5% FBS. The virus spectrum in tissue culture consisted of two DNA viruses, a San Carlos virus isolated by Davis [see Science 133, 2059, 1961] and later identified as an adenovirus, and the HF strain of herpes simplex virus. In addition, a RNA virus represented by measles was included in the examples.
(§2) In performing the initial assays, the tissue cultures were treated prophylactically and the virus was treated in vitro with decreasing 2,4-dimethylphenol concentrations ranging from […] (2 × 10^-6) to 2 attograms (ag) (2 × 10^-18) per ml. The procedure consisted of pretreating tube cultures of HEL cells for two to three days with growth medium containing varying concentrations of 2,4-dimethylphenol. After the prophylactic treatment, the test fluids were removed and replaced with fresh maintenance medium. At this time, 200 TCID50 doses of virus were mixed in vitro with the same decreasing concentrations of the distillate used to pretreat the cells, then the mixture was inoculated into replicate culture of HEL cells so that the final incolum consisted of 100 TCID50 doses of virus in tubes with 2,4-dimethylphenol at the same level used to prophylactically treat the cells.
(§3) The same number of infected control tubes were handled in the same way except that 2,4-dimethylphenol was omitted from all media. Culture tubes were rotated at 37° C. and examined daily for a period of 7 days for cytopathic activity (CPE). […] By the same token, the CPE of herpes virus was inhibited by both the 10^-12 and 10^-15 level, possibly indicating two active components. […]

Measles = assay: Inhibition of cytopathic activity (CPE) of measles virus in HEL tissue culture; assay type: cell-based; details: for CPE with 100 TCID50 doses of Measles virus: HEL cells
Description: as §1, §2, §3

Q: For `Cc1ccc(O)c(C)c1` [2,4-dimethylphenol], which “CPE with 100 TCID50 doses of Herpes virus” value ([1]; 10^-6 grams 2X) is on record?
A: The value was 3+ (75% of cells infected with selected virus).

Q: And the “CPE with 100 TCID50 doses of Herpes virus” value ([1]; 10^-7 grams 2X)?
A: Its value is 3+ (75% of cells infected with selected virus).

Q: And the “CPE with 100 TCID50 doses of Herpes virus” value ([1]; 10^-8 grams 2X)?
A: The value was 2+ (50% of cells infected with selected virus).

Q: And the “CPE with 100 TCID50 doses of Herpes virus” value ([1]; 10^-9 grams 2X)?
A: Its value is 2+ (50% of cells infected with selected virus).

Q: And the “CPE with 100 TCID50 doses of Herpes virus” value ([1]; 10^-10 grams 2X)?
A: Its value is 2+ (50% of cells infected with selected virus).

Q: What about the “CPE with 100 TCID50 doses of Herpes virus” value ([1]; 10^-11 grams 2X) of the same compound?
A: The value was 2+ (50% of cells infected with selected virus).

Q: And the “CPE with 100 TCID50 doses of Herpes virus” value ([1]; 10^-12 grams 2X)?
A: The value was 1+ (25% of cells infected with selected virus).

Q: And the “CPE with 100 TCID50 doses of Herpes virus” value ([1]; 10^-13 grams 2X)?
A: Its value is 2+ (50% of cells infected with selected virus).

Q: And the “CPE with 100 TCID50 doses of Herpes virus” value ([1]; 10^-14 grams 2X)?
A: Its value is 3+ (75% of cells infected with selected virus).

Q: And the “CPE with 100 TCID50 doses of Herpes virus” value ([1]; 10^-15 grams 2X)?
A: The value was 1+ (25% of cells infected with selected virus).

Q: And the “CPE with 100 TCID50 doses of Herpes virus” value ([1]; 10^-16 grams 2X)?
A: The value was 4+ (100% of cells infected with selected virus).

Q: What about the “CPE with 100 TCID50 doses of Herpes virus” value ([1]; 10^-17 grams 2X) of the same compound?
A: Its value is 4+ (100% of cells infected with selected virus).

Q: What about the “CPE with 100 TCID50 doses of Herpes virus” value ([1]; 10^-18 grams 2X) of the same compound?
A: The value was 2+ (50% of cells infected with selected virus).

Q: What about the “CPE of herpes virus” value ([1]; both the 10^-12 and 10^-15 level) of the same compound?
A: The value was “inhibited”.

Q: And the “CPE with 100 TCID50 doses of Measles virus” value (shortened to “CPE … of Measles virus”) (Measles; 10^-6 grams 2X)?
A: The value was 3+ (75% of cells infected with selected virus).

Q: And the “CPE … of Measles virus” value (Measles; 10^-7 grams 2X)?
A: Its value is 3+ (75% of cells infected with selected virus).

Q: What about the “CPE … of Measles virus” value (Measles; 10^-8 grams 2X) of the same compound?
A: Its value is 3+ (75% of cells infected with selected virus).

Q: And the “CPE … of Measles virus” value (Measles; 10^-9 grams 2X)?
A: Its value is 2+ (50% of cells infected with selected virus).

Q: What about the “CPE … of Measles virus” value (Measles; 10^-10 grams 2X) of the same compound?
A: Its value is 2+ (50% of cells infected with selected virus).

Q: What about the “CPE … of Measles virus” value (Measles; 10^-11 grams 2X) of the same compound?
A: Its value is 2+ (50% of cells infected with selected virus).

Q: And the “CPE … of Measles virus” value (Measles; 10^-12 grams 2X)?
A: Its value is 2+ (50% of cells infected with selected virus).

Q: What about the “CPE … of Measles virus” value (Measles; 10^-13 grams 2X) of the same compound?
A: The value was 2+ (50% of cells infected with selected virus).

Q: And the “CPE … of Measles virus” value (Measles; 10^-14 grams 2X)?
A: Its value is 1+ (25% of cells infected with selected virus).

Q: What about the “CPE … of Measles virus” value (Measles; 10^-15 grams 2X) of the same compound?
A: The value was 1+ (25% of cells infected with selected virus).

Q: And the “CPE … of Measles virus” value (Measles; 10^-16 grams 2X)?
A: The value was “± (less than 10% infected)”.

Q: What about the “CPE … of Measles virus” value (Measles; 10^-17 grams 2X) of the same compound?
A: Its value is 1+ (25% of cells infected with selected virus).

Q: And the “CPE … of Measles virus” value (Measles; 10^-18 grams 2X)?
A: The value was 0 (no cells infected).

Q: And the “Measles CPE” value (Measles; concentrations less than the 10^-14 level)?
A: The value was “appeared to be inhibited”.
